According to patent publication US7662767B2, “Polynucleotide intercalator interceptors and inhibitors” (Materials Evolution and Development USA, Inc., priority 2000, dated 2010):
Several values for one entry are separate records, joined by “and”; a condition that tells them apart may be missing. Identical values can stand only once. Like-named read-outs stand apart in the source and are kept apart here.

Assays:
herring sperm dsDNA = assay: Acridine orange with dsDNA, spectrofluorometry λem 530 nm; type: binding; conditions: AO-DNA, AO [2 μM], DNA [>20 μM], hydrochloride
Description: In another implementation, a spectrofluorometric analysis of the interaction of AO with dsDNA at λex 485 nm and λem 530 nm and 635 nm was also conducted. The interaction of DNA with lower concentrations of AO [2 μM] mimicked the results found at the higher AO concentration of 20 μM for bp:AO ratios of 4:1 and above. The association curve for AO over a series of steadily increasing DNA concentrations ranging from […] of DNA is shown in FIG. 3-8.
The example shown in FIG. 3-8 illustrating the effect of NaCl on the fluorescence of 2 μM AO was determined over a range of bp:AO ratios from 4 to 62.5. The excitation wavelength was 485 nm while emission was monitored at 530 nm. The association constant for 2 μM AO with DNA was determined to be 31,990±310 M^−1 (R^2=0.98) in the absence of NaCl and 31,690±498 M^−1 (R^2=0.96) in the presence of NaCl. Error bars are shown to denote confidence intervals at 95% unless hidden by a data point symbol. The delta fluorescence values were obtained by subtracting the background fluorescence of HEPES buffered AO at 2 μM in the absence of DNA. The association constant for the interaction of AO with DNA was determined to be 31,990±3,190 M^−1.

[1] = tested on: Drosophila salivary gland polytene chromosome; assay: Removal of DNA binding stains from polytene chromosome bands by xanthine wash; set-up: species or system Drosophila melagaster; conditions: for Degree of Stain Removal, Exposure to AM (100 mM) / Degree of Stain Removal, Exposure to CAF (100 mM): 15 minute wash, static, hydrochloride
Description: In another implementation, giant polytene chromosomes were prepared by the squash technique from the salivary gland of Drosophila melagaster larva The salivary gland was placed on a microscope slide, squashed with a glass cover slide, fixed with acidic acid, rinsed with distilled water, and allowed to dry (kindly provided by Linda Chadwell, UTHSCSA-IBT). Three known DNA intercalators, ethidium bromide (98% purity, Aldrich Chemical Company, Milwaukee, Wis.), doxorubicin (98%, Sigma Chemnical Company, St. Louis, Mo.), and acridine orange plus the minor groove binding DNA stain Hoechst 33258 (98%, ACROS Chemical Company, NJ) were prepared in distilled water at a concentration of 1 mM (for chemical structures see FIG. 4-1, where acridine orange (3,6-bis [dimethylamino] acridine) is shown in Panel A, ethidium bromide is shown in Panel B, doxorubicin is shown in Panel C, Hoechst 33258 is shown in Panel D). The slides with prepared chromosomes were immersed in these stains for a period of 30 minutes, rinsed with distilled water, and dried at room temperature. Fluorescence microscopic analysis was conducted at λex 360 nm and photomicrographs were conducted on a Zeiss Model 63 Microscope with a xenon source fluorescent emitter. Photomicrographs were taken using Kodak Gold 35 mm ASA 1600 speed film noting the position of one individual chromosome on the slide. The stained slides were then subjected to 100 mM caffeine or 100 mM aminophylline under static conditions for a period of 15 minutes, rinsed with distilled water, then allowed to dry at room temperature. The presence of the same individual unstained chromosome in the field was confirmed by phase contrast microscopy. The chromosome was viewed again under fluorescence microscopy at […], and color recorded. Slides were re-stained by immersion in the 1 mM stain for a period of 30 minutes, rinsed with distilled water, and dried at room temperature, and the same individual chromosome was examined by fluorescence microscopy and the fluorescence color recorded.
FIG. 4-3 depicts three photomicrographs of the same Drosophila polytene chromosome: after staining with the DNA minor groove binder Hoechst 33258 dye (Panel A), after rinsing with CAF for 15 minutes (Panel B), and a phase contrast verification of the presence of the chromosome after the CAF rinse (Panel C). Table 4-4 summarizes the results from the experiments using caffeine (CAF) and aminophylline (AM) to remove the following DNA intercalators: doxorubicin, ethidium bromide, acridine orange, and the DNA minor groove binder Hoechst 33258 from their binding sites within polytene chromosomes. […] With all DNA intercalators, the staining of chromosome bands was intense before the xanthine rinses and was again intense following re-staining.

[2] = tested on: apChromatin (depurinated chicken erythrocyte nuclear chromatin); assay: Acridine orange staining after acid hydrolysis of dsDNA to apurinic acid, fluorescence microscopy; type: binding
Description: Depurination of dsDNA within the nuclear chromatin of chicken erythrocytes was accomplished by using a modification of the Feulgen method (Feulgen and Rossenbeck, 1924). Specifically, the nucleated chicken erythrocyte slide preparations were rinsed in a 1 N solution of HCl at room temperature for 60 seconds. This was followed by placement of the slide in a pre-heated (55° C.) solution of 1 N HCl for 10 minutes under static conditions followed by several rinses in distilled water at room temperature. Slides were allowed to dry at room temperature then stained with AO at two different concentrations, one at 5 mM and the other at 10 μM for 15 min and 2 min, respectively. The depurination of DNA was expected to remove the site on the DNA polymer where AO intercalation can occur.
Solutions of AO were prepared at 5 mM and 10 μM concentrations in distilled water. […] Processed slides were stored in the dark then read and photomicrographs taken (Zeiss Model 63 Microscope, 1600 ASA Kodak film) soon after removal from the dark to avoid photobleaching.
In the example shown in Table 4-1, the chicken erythrocytes were smeared and dried on a microscope slide prior to exposure to two different concentrations of AO (10 μM and 5 mM), rinsed with distilled water, and allowed to dry. Erythrocytes were examined with fluorescence microscopy and the color of the nuclei recorded. […]

[3] = AO-CAF, cited from earlier work

Row | Re-staining following Xanthine Exposure ([1]; 1 mM stain, 30 minutes) | Staining before Xanthine Exposure ([1]; 1 mM stain, 30 minutes) | Degree of Stain Removal, Exposure to AM (100 mM) [1] | Degree of Stain Removal, Exposure to CAF (100 mM) [1] | Degree of Stain Removal, Exposure to AM (100 mM) ([1]; listed as Acridine Orange) | Degree of Stain Removal, Exposure to CAF (100 mM) ([1]; listed as Acridine Orange) | SMILES | K ± S.D. (herring sperm dsDNA; Fluorescence plus NaCl) | K ± S.D. (herring sperm dsDNA; Fluorescence plus NaCl, listed as AO-DNA) | K ± S.D. (herring sperm dsDNA; Fluorescence, absence of NaCl) | K ± S.D. (herring sperm dsDNA; Fluorescence, absence of NaCl, listed as AO-DNA) | Fluorescent Color ([2]; AO 10 μM) | Fluorescent Color ([2]; AO 5 mM) | K ± S.D. ([3]; Absorbance plus NaCl 150 mM, AO [20 μM], CAF [1-2000 μM], Kapuscinski & Kimmel, 1993) [M⁻¹] | K ± S.D. ([3]; Absorbance, AO [10 μM], CAF [1-5000 μM], Larsen et al., 1996) [M⁻¹] | K ± S.D. ([3]; Absorbance, AO [20 μM], CAF [1-2000 μM], Kapuscinski & Kimmel, 1993) [M⁻¹]
1 | Complete | Banding | completely removed | did not completely remove the stain | Complete | Almost | CN(C)c1ccc2cc3ccc(N(C)C)cc3nc2c1.Cl [AO, 3,6-bis[dimethylamino]acridine hydrochloride] | 31,690±498 M^−1 and 31,690±4,980 M^−1 | 31,690 ± 4,890 M^−1 | 31,990±310 M^−1 and 31,990±3,190 M^−1 | 31,990 ± 3,190 M^−1 | No Color | Red |  |  | 
2 |  |  |  |  |  |  | Cn1c(=O)c2c(ncn2C)n(C)c1=O [1,3,7-trimethyl xanthine (caffeine), 1,3,7-trimethyl xanthine] |  |  |  |  |  |  | 169 ± 9 | 258 ± 5 | 258 ± 7
